Data as given in patent US20190038597A1, “PREVENTION OF VASCULAR AND CARDIAC FIBROSIS VIA IRE1ALPHA INHIBITION” (McMaster University, priority 2017, published 2019).

Legend:
[1] = system: SHR/L-NAME model of hypertension; experiment: Cardiac hypertrophy and fibrosis in L-NAME-treated SHRs; format: in vivo, rat
Protocol: 12-14 week old male SHRs were randomized to receive vehicle, L-NAME (50 mg/L) or L-NAME and 4μ8c (2.5 mg/kg/day i.p.) for 18 days. (A) Cardiac hypertrophy measured using heart weight to body ratio. (B) Quantification of Picro-Sirius Red-stained area in heart tissue. (C) Picro-Sirius Red staining of transverse heart sections. Bar: 4×, 500 μm; 20×, 200 μm. Data is presented as mean±SEM. *, p<0.05 vs. NT. #, p<0.05 vs L-NAME.
12-14 week old male SHRs were used to determine the effect of pharmacological IRE1α inhibition on L-NAME-induced vascular stiffening. They were maintained on a 12-hour light-dark cycle with rat chow and water ad libitium. Animals were implanted with radio-telemetry devices (Data Science International, St. Paul, Minn., USA) one week before the start of the study. Animals were randomized into one of three groups (n=6 per group): 1) No treatment, 2) L-NAME (50 mg/L in drinking water, Sigma-Aldrich), or 3) L-NAME+4μ8c (2.5 mg/kg/day i.p., Millipore). 4μ8c was administered in a vehicle of 10% DMSO, 10% Tween-80 and 80% normal saline. Animals in Group 2 received daily injections of the vehicle. All animals were fed a normal chow diet. […]
Tissues were fixed in 4% paraformaldehyde and subsequently embedded in paraffin. […] Collagen area density was calculated by dividing the PSR-stained area by the total area of the vessel.

VSMCs = experiment: Picro-Sirius Red assay of collagen synthesis in VSMCs; format: cell-based, rat
Protocol: VSMCs were cultured in DMEM/F12 containing 1% FBS. Confluent cells were treated with L-ascorbic acid-2-phosphate (100 μg/ml) and either TGF-β1 (5 ng/ml) or Ang II (1 μM). (A) Agarose gel for assessment of TGF-β1-induced XBP1 splicing in VSMCs after 24 h. (B) Picro-Sirius Red assay for measurement of collagen deposition induced by combined TGF-β1 and AA2P treatment after 72 h, and inhibition by 4μ8c and STF-083010. (C) Western blot for assessment of collagen chaperone expression after treatment of TGF-β1 and 4μ8c for 48 h. *, p<0.05. (D) Measurement of Ang II-induced collagen production and inhibition by 4μ8c and STF-083010 after 72 h.
VSMCs were isolated from the aortas of 5-week old WKY rats using the explant method^29. The thoracic aorta was removed from the animal and placed in ice-cold 5× Antibiotics-Antimycotics solution (ThermoFisher). The adventitia was gently removed and the aorta was cut longitudinally. The endothelial layer was removed by gentle scraping with forceps. The aorta was cut into 3 mm^2 squares and placed on a 6 well plate in DMEM/F12 medium containing 10% fetal bovine serum (FBS). Explants were incubated undisturbed in a 5% CO2 incubator at 37° C. for 1 week and then passaged. Sprague-Dawley renal fibroblasts were purchased (Cell Biologics) and cultured in low glucose DMEM/F12 medium containing 10% FBS, streptomycin (100 μgimp, and penicillin (100 U/ml, Invitrogen, Burlington, ON). Cells between passages 5 and 10 were used for experiments. Cells were cultured in medium containing 1% FBS overnight before treatment.
Collagen synthesis was measured using a Picro-Sirius Red-based assay as previously described^30. Briefly, cells cultured on a 96 well plate were fixed in methanol for 10 minutes at −20° C. Cells were washed once with PBS and incubated with Picrosirius Red stain (0.1% Direct Red 80 in saturated picric acid) for 1 h at room temperature. After the staining solution was removed, the cells were washed three times with 0.1% acetic acid and then imaged. The dye was then eluted with 0.1 N NaOH for 10 minutes on a rocking platform. Absorbance at 540 nm was measured using a Spectramax Plus Microplate Reader (Molecular Devices).
Cells were co-treated with either 4μ8c or S′TF-083010 to inhibit IRE1α endonuclease activity. TGF-β1 induced XBP1 splicing after 24 h, which was blocked by co-treatment with 4μ8c (FIG. 2A). Collagen production was measured using a Picro-Sirius Red-based colorimetric assay. TGF-β1 combined with AA2P induced collagen synthesis in the VSMCs, which was inhibited by co-treatment with 4μ8c or STF-083010 (FIG. 2B).

[2] = system: SHR/L-NAME model of hypertension; experiment: Radiotelemetry blood pressure and heart rate in L-NAME-treated SHRs; format: in vivo, rat
Protocol: 12-14 week old male SHRs were implanted with radiotelemetry devices and randomized to receive vehicle, L-NAME (50 mg/L) or L-NAME and 4μ8c (2.5 mg/kg/day i.p.) for 18 days. Systolic (A), diastolic (B), and heart rate (C) were monitored. Data is presented as mean±SEM. *, p<0.05 vs. NT; #, p<0.05 vs. L-NAME. N≥4 per group.
12-14 week old male SHRs were used to determine the effect of pharmacological IRE1α inhibition on L-NAME-induced vascular stiffening. They were maintained on a 12-hour light-dark cycle with rat chow and water ad libitium. Animals were implanted with radio-telemetry devices (Data Science International, St. Paul, Minn., USA) one week before the start of the study. Animals were randomized into one of three groups (n=6 per group): 1) No treatment, 2) L-NAME (50 mg/L in drinking water, Sigma-Aldrich), or 3) L-NAME+4μ8c (2.5 mg/kg/day i.p., Millipore). 4μ8c was administered in a vehicle of 10% DMSO, 10% Tween-80 and 80% normal saline. Animals in Group 2 received daily injections of the vehicle. All animals were fed a normal chow diet. At 18 days, animals were sacrificed, organs were harvested and the aorta was collected for mechanical and structural analysis. All animal work was performed according to the guidelines approved by the McMaster University Animal Research Ethics Board.
12-14 week old SHRs were implanted with radiotelemetry devices and treated with the nitric oxide synthase inhibitor L-NAME for 18 days. Rats were given daily injections of either vehicle or 4μ8c (2.5 mg/kg/day i.p.). […] At Day 6, SBP had increased from 187.4±5.4 mmHg to 228.0±15.5 mmHg (p<0.05) and DBP from 134.8±6.5 mmHg to 174.5±13.6 mmHg. At Day 14, SBP and DBP reached a peak of 262.6±13.9 mmHg and 210.4±14.8 mmHg, respectively. […] In the L-NAME+4μ8c group, SBP increased from 166.6±8.4 mmHg at baseline to 216.7±4.8 mmHg at Day 6 while DBP increased from 124.7±5.5 mmHg at baseline to 166.2±8.2 mmHg at Day 6. SBP and DBP peaked at 232.3±5.4 mmHg and 192.1±17.0 mmHg, respectively, at Day 9. […] Vessels were stained with PicroSirius Red and imaged using a light microscope (FIG. 5A). Collagen content in homogenized aortic tissue was measured using the PSR-based colorometric assay.

[3] = L-NAME+4μ8c group, peak at Day 9
[4] = SHR, L-NAME 50 mg/L, 4μ8c 2.5 mg/kg/day i.p., 18 days

`Cc1cc(=O)oc2c(C=O)c(O)ccc12` [4μ8c, 7-Hydroxy-4-methyl-2-oxo-2H-chromene-8-carbaldehyde] was tested, and the “fibrosis in the left and right ventricles by PSR staining” value ([1]; 4μ8c-treated animals vs L-NAME group, FIGS. 7B and 7C) was “significantly reduced”, the “cardiac hypertrophy (heart weight to body weight ratio)” value ([1]; L-NAME+4μ8c group, 18 days, FIG. 7A) was 4.293±0.438 mg HW/g BW and the “collagen synthesis induced by TGF-β1 combined with AA2P” value (VSMCs; 72 h, co-treatment, FIG. 2B) was “inhibited”. For the same compound, the “collagen synthesis induced by Ang II” value (VSMCs; Ang II (1 μM) 72 h, FIG. 2D) was “blocked”, the DBP ([2]; L-NAME+4μ8c group, Day 6) was 166.2±8.2 mmHg and the SBP ([2]; L-NAME+4μ8c group, Day 6) was 216.7±4.8 mmHg. For the same compound, the DBP ([2]; L-NAME+4μ8c group, baseline) was 124.7±5.5 mmHg, the SBP ([2]; L-NAME+4μ8c group, baseline) was 166.6±8.4 mmHg and the DBP peak [2, 3] was 192.1±17.0 mmHg. The SBP peak [2, 3] was 232.3±5.4 mmHg, the “effect on L-NAME-induced elevation in blood pressure” value [2, 4] was “did not have an effect” and the “effect on L-NAME-induced elevation in heart rate” value [2, 4] was “did not have an effect”.
